Tests used:
ΔF508-CFTR [1] = target: T1, ΔF508-CFTR (Homo sapiens, UniProt P13569, DEL508-508); test: Other protein tyrosine kinase inhibitors, activation of ΔF508-CFTR; format: cell-based; set-up: expressed in transfected cells; host or cells: NIH/3T3 cells, stably transfected (NIH/3T3-ΔF508, gift of Dr. Richard Mulligan)
ΔF508-CFTR [2] = target: T1, ΔF508-CFTR; test: Mean current-variance analysis of macroscopic currents, NIH/3T3-ΔF508 cells; format: cell-based; set-up: expressed in transfected cells; host or cells: NIH/3T3 cells, stably transfected (NIH/3T3-ΔF508, gift of Dr. Richard Mulligan)
Method: FIGS. 4A and B are graphs showing the variance analysis of macroscopic currents for wt- and ΔF508-CFTR wherein (A) is a plot of variance as a function of mean-current amplitude for NIH/3T3-CFTR(.circle-solid.) and NIH/3T3-ΔF508 (.smallcircle.) cells stimulated with 10 μM forskolin plus 50 μM genistein. (B) is a plot of variance as a function of mean-current amplitude for NIH/3T3-CFTR (.circle-solid.) and NIH/3T3-ΔF508 (.smallcircle.) cells stimulated with 10 μM forskolin. Lines are least square regressions.
Electrophysiology: CFTR channel currents were recorded at room temperature (~22° C.) with a patch-clamp amplifier (EPC-9, Heka Electronic), filtered at 100 Hz with a built-in three-pole Bessel filter, and stored on videotapes. Data were subsequently refiltered at 25 Hz with an eight-pole Bessel filter (Frequency Device, Havervill, Mass.) and captured onto a hard disk at a sampling rate of 50 Hz. […] Patch-clamp electrodes were made from Corning 7052 glass capillaries (Warner Instrument, Hammed, Conn.). The pipette resistance was usually 3-5 M.OMEGA., and the seal resistance was >20 G.OMEGA.. […]
Statistics: Mean currents and variance were estimated with Igor (Wavemetrics, Lake Oswego, Oreg.). […] Po was calculated from patches containing a single channel by dividing the open channel current amplitude with the mean-current amplitude. […] Calculated values are presented as means±SE. […]

wt-CFTR [3] = target: wt-CFTR (Homo sapiens, UniProt P13569)
Chain of wt-CFTR (Homo sapiens, UniProt P13569) (P13569 whole entry, the tested form may be a part): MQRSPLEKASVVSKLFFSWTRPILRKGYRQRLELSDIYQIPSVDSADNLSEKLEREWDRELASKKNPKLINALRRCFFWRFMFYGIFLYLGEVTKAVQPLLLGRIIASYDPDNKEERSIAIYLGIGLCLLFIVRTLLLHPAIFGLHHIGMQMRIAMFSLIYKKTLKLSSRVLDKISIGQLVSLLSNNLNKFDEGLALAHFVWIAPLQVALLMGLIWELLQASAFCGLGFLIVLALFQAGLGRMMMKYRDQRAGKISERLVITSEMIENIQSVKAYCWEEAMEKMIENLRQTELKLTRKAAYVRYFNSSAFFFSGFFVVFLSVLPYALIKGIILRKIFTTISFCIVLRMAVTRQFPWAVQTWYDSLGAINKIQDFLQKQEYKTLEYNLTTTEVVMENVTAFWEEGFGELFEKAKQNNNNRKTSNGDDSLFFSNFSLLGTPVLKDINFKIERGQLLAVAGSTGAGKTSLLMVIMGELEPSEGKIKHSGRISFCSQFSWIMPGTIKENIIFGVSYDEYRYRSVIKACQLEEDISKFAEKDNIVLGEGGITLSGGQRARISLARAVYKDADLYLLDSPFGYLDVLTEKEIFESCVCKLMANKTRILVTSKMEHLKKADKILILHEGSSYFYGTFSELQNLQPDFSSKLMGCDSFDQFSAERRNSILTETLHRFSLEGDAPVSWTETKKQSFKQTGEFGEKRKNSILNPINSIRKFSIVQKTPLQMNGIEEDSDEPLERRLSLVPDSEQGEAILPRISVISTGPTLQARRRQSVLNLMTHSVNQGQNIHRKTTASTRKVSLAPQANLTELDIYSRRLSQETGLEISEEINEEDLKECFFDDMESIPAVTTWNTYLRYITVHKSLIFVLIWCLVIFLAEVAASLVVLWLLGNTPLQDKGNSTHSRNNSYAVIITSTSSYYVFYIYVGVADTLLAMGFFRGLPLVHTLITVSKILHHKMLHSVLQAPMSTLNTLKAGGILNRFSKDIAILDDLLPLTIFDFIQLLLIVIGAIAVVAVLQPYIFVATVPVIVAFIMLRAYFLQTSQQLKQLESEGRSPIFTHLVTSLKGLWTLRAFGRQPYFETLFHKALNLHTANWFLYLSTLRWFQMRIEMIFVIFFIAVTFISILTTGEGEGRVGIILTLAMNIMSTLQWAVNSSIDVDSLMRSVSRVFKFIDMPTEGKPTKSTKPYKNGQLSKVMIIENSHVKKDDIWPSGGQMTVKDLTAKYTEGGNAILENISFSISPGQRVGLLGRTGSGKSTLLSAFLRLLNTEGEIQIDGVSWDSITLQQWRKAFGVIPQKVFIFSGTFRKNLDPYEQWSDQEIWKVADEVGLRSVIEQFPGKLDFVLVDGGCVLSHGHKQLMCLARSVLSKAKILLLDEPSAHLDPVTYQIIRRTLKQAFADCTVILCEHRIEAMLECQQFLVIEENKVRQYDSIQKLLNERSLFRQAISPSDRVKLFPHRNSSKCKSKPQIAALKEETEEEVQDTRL
Method: (§1) Electrophysiology: CFTR channel currents were recorded at room temperature (~22° C.) with a patch-clamp amplifier (EPC-9, Heka Electronic), filtered at 100 Hz with a built-in three-pole Bessel filter, and stored on videotapes. Data were subsequently refiltered at 25 Hz with an eight-pole Bessel filter (Frequency Device, Havervill, Mass.) and captured onto a hard disk at a sampling rate of 50 Hz. […] Patch-clamp electrodes were made from Corning 7052 glass capillaries (Warner Instrument, Hammed, Conn.). The pipette resistance was usually 3-5 M.OMEGA., and the seal resistance was >20 G.OMEGA.. The pipette solution contained (in mM) 140 N-methyl-D-glucamine chloride (NMDG-C1), 2 MgCl2, 5Ca Cl2, and 10 HEPES (pH 7.4 with NMDG). The superfusion solution contained (in mM) 150 […], 2 MgCl2, 1 EGTA, 5 glucose, and 5 HEPES (pH 7.4 with NaOH). In excised inside-out patch experiments, the bath solution contained (in mM) 130 MNDG-Cl, 10 EGTA, 10 HEPES, 20 tetraethylammonium chloride, 8 Tris, and 2 MgCl2 (pH 7.4 with NMDG). Pipette potential was held at 50 mV relative to the bath. Downward deflections represent channel opening.

[4] = system: acid secretion and osteopathic bone resorption; conditions: cited from earlier work
protein phosphatase = conditions: cited from earlier work
tyrosine kinases = conditions: cited from earlier work
wt-CFTR [5] = test: Patch clamp, cell-attached patches, Calu-3 cells; format: cell-based, human; conditions: 50 μM genistein on forskolin, n=15
Source text: Downward deflections represent channel opening.

ΔF508-CFTR [6] = target: T1, ΔF508-CFTR; test: Single-channel kinetics (dwell-time analysis), cell-attached patches; format: cell-based; set-up: expressed in transfected cells; host or cells: NIH/3T3 cells, stably transfected (NIH/3T3-ΔF508, gift of Dr. Richard Mulligan)
Method: FIGS. 3A and B show recordings of the potentiation of wild-type (wt) and ΔF508-CFTR channel activity by genistein. Channels in cell-attached patches from NIH/3T3-CFTR (FIG. 3A) and NIH/3T3-ΔF508cells (FIG. 3B), were stimulated as indicated with 10 μM forskolin and 50μ genestein.
as §1
Statistics: Mean currents and variance were estimated with Igor (Wavemetrics, Lake Oswego, Oreg.). Parameters for mean current-variance relationships and dose-response curves were obtained from least-square fitting with Sigmaplot (Jandel, San Rafael, Calif.). Po was calculated from patches containing a single channel by dividing the […]. Dwell-time analysis was described previously [Baukrowitz et al., 1994]. Calculated values are presented as means±SE. Comparisons among data were made using the Student's t-test with P<0.05 considered significant.
To determine how genistein increases Po, the effects of genistein on single-channel kinetics were examined in cell-attached patches using dwell-time analysis. […] Both traces were recorded in the presence of 10 μM forskolin; 50 μM genistein was added prior to the start of the lower trace. […] The mean open times for ΔF508-CFTR were also determined. However, since cell-attached patches containing a single ΔF508-CFTR channel were not observed, a direct assessment of the closed times for ΔF508-CFTR cannot be made. Dwell-time analysis of pooled open times were performed on 14 patches where individual openings of ΔF508-CFTR could be clearly identified.
Table 1. Values are means±SE.

[7] = Table 1, 10 μM forskolin + 50 μM genistein

T1 sequence (P13569 with tags, fused parts or gaps DEL508-508): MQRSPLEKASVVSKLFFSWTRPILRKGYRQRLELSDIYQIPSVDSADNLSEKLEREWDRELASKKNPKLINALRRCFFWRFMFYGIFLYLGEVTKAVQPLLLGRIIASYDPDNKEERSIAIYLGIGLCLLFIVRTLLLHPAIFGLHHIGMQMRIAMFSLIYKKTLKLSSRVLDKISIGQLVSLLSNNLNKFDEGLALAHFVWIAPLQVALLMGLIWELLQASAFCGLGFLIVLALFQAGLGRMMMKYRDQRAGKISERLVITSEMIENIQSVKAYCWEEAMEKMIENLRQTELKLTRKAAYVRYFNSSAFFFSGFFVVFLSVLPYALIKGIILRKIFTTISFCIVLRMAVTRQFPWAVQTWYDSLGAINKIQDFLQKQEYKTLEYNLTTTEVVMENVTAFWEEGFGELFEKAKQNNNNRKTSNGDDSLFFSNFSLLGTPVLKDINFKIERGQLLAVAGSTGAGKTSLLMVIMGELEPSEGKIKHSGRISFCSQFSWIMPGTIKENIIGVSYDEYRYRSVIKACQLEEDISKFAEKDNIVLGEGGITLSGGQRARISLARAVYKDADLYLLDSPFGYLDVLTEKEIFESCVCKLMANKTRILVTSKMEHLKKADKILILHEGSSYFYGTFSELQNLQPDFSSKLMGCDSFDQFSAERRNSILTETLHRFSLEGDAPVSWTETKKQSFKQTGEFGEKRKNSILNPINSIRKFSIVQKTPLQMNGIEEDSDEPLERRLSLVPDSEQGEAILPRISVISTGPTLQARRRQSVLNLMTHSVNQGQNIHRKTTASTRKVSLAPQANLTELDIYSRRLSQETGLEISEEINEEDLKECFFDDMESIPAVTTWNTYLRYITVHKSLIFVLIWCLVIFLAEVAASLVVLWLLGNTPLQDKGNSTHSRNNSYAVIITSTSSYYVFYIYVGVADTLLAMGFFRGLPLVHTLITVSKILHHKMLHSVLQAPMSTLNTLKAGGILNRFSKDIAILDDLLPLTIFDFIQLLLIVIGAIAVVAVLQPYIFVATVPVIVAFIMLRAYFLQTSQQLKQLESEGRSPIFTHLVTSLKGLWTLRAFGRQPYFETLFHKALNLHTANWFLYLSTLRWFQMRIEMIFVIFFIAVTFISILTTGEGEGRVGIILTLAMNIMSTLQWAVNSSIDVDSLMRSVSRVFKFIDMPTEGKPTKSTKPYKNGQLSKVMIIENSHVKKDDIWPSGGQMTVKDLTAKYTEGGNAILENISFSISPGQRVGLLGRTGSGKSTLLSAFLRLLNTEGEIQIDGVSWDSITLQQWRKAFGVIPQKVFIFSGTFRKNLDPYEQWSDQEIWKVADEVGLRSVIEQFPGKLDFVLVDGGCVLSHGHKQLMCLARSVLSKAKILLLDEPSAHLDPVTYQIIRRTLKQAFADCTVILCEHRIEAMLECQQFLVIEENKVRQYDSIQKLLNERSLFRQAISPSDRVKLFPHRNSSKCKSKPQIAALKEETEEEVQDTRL

| SMILES | ΔF508-CFTR stimulation activity among protein tyrosine kinase inhibitors (ΔF508-CFTR [1]) | slope of variance vs mean current (proportional to 1-Po) (ΔF508-CFTR [2]; 10 μM forskolin and 50 μM genistein) [pA] | magnitude of potentiation by genistein after patch cramming (wt-CFTR [3]; patch crammed into a different NIH/3T3-CFTR cell) | increase of mean current by genistein (wt-CFTR [3]; wt-CFTR crammed into NIH/3T3-ΔF508 cell, 10 μM forskolin, 50 μM genistein, n=3) [fold] | inhibition of acid secretion and osteopathic bone resorption [4] | inhibition of protein phosphatase (protein phosphatase) | inhibition of tyrosine kinases (tyrosine kinases) | average increase in mean-current amplitude by genistein (wt-CFTR [5]) [fold] | increase of TO2 of forskolin-activated ΔF508-CFTR current by genistein (ΔF508-CFTR [6]; 10 μM forskolin) | TO1 (mean open time) (ΔF508-CFTR [6]; [7]) | TO2 (long mean open time) (ΔF508-CFTR [6]; [7]) | slope of variance vs mean current (proportional to 1-Po) (ΔF508-CFTR [2]; 10 μM forskolin) [pA] | average long closing time (ΔF508-CFTR [6]; 10 μM forskolin alone, at least 5 channels in patch) [s] | TO2 (so in the source), estimated (ΔF508-CFTR [6]; 10 μM forskolin, from observed closed time and minimal number of channels) | TO1 (mean open time) (ΔF508-CFTR [6]; Table 1, 10 μM forskolin) | TO2 (long mean open time) (ΔF508-CFTR [6]; Table 1, 10 μM forskolin) | TC2 (long mean closed time), estimation (ΔF508-CFTR [6]; Table 1, 10 μM forskolin, estimated from observed closed time and minimum number of channels) |
| --- | --- | --- | --- | --- | --- | --- | --- | --- | --- | --- | --- | --- | --- | --- | --- | --- | --- |
| O=c1c(-c2ccc(O)cc2)coc2cc(O)cc(O)c12 [Genistein, 4',5,7-trihydroxyisoflavone] | is the only protein tyrosine kinase inhibitor that has such an effect | 0.16±0.03 | similar | 3.2±0.3 | effectively inhibits acid secretion and osteopathic bone resorption | no protein phosphatase has been shown to be inhibited by genistein | inhibits | 3.1±0.3 | two-to threefold | 0.31 ± 0.17 | 2.63 ± 0.37 |  |  |  |  |  |  |
| C=C[C@@]1(C)CC(=O)[C@]2(O)[C@@]3(C)[C@@H](O)CCC(C)(C)[C@@H]3[C@H](O)[C@H](OC(C)=O)[C@@]2(C)O1 [forskolin] |  |  |  |  |  |  |  |  |  |  |  | 0.72±0.06 | 6.1 | about 30 seconds | 0.30 ± 0.11 | 0.92 ± 0.12 | > 30 |

From patent US5948814A, “Genistein for the treatment of cystic fibrosis” (priority 1998, dated 1999)
